Experimental data: PubChem BioAssay AID1963863 (Molecular Pharmacology Branch, DTP, NCI, 2024)

Test system: 931267-113-T-J1-PDC KRAS spheroid with HUVEC/MSC, viability
Experiment: Anticancer human tumor 931267-113-T-J1-PDC patient-derived colon adenocarcinoma cell line growth inhibition [KRAS2]
Details: for IC50: curve of first compound; for viability, T/C: stronger effect = lower value
From the text: Multicellular complex tumor spheroid response to RAS pathway inhibitors in combination with a targeted agents in patient-derived cell lines with oncogenic KRAS variants from multiple cancer types
A high-throughput screen of multi-cell type tumor spheroids was designed to identify active combinations of targeted small molecules and KRAS pathway inhibitors. Complex spheroids include a stromal component modeled by human endothelial cells (HUVEC) and fibroblasts modeled by human mesenchymal stem cells (MSCs). The concentration ranges selected for each drug and investigational agent were based upon clinically achievable concentrations if the clinical Cmax of the agent was known.
Compounds. The drugs and investigational agents: BI-3406 (NSC825286), BAY-293 (NSC824723), batoprotafib (TNO155; NSC825523), sotorasib (AMG 510; NSC818433), MRTX1257 (NSC819558), elimusertib (BAY 1895344; NSC800525), molibresib (GSK525762; NSC774829), temuterkib (LY3214996; NSC803410), venetoclax (NSC766270), alisertib (NSC759677), olaparib (NSC753686), talazoparib (NSC767125), erdafitinib (NSC781556), ipatasertib (NSC767898), cabozantinib (NSC761068), nintedanib (NSC756659), abemaciclib (NSC768073), docetaxel (NSC628503), trametinib (NSC758246), and sapanisertib (NSC764658) were obtained from the National Cancer Institute (NCI) Developmental Therapeutics Program Chemical Repository. The FDA-approved anticancer drug set is available from the Developmental Therapeutics Program. […] The stock solutions were prepared in dimethyl sulfoxide (DMSO, Sigma-Aldrich, St. Louis, MO, cat. D2650) at 800-fold the tested concentration and stored at -70 degrees C prior to their use. All drugs and investigational agents were tested over a range starting from a high concentration at or near the clinical Cmax and decreasing in half-log increments. If the clinical Cmax for an agent had not been determined, the highest concentration tested was 10 microM.
Cell Culture. All cells were maintained in an incubator at 37 degrees C and 5% CO2 with 95% humidity. The PDC lines were cultured according to standard operating procedures established by the NCI PDMR (https://pdmr.cancer.gov/sops/default.htm). Briefly, all PDCs were thawed and cultured in Matrigel-coated flasks prepared with a working solution of 1X Ham's F-12 nutrient mix, without supplementation (Invitrogen, Waltham, MA, cat. 11765054), 100 U/mL penicillin-streptomycin (Invitrogen, cat. 15140122), and 2.5% Matrigel (Corning Inc., Corning, NY, cat. 354248) for the first three passages. All PDCs were cultured in complete DMEM/F-12 media containing advanced DMEM/F-12 (Invitrogen, cat. 12634028), 4.9% defined fetal bovine serum, heat inactivated (HyClone Laboratories Inc., Logan, UT, cat. SH30070.03HI), 389 ng/mL hydrocortisone (Sigma-Aldrich, cat. H4001), 9.7 ng/mL human EGF recombinant protein (Invitrogen, cat. PHG0313), 23.4 microg/mL adenine (Sigma-Aldrich, cat. A2786), 97.3 U/mL penicillin-streptomycin (Invitrogen, cat. 15140122), 1.9 mM L-glutamine (Invitrogen, cat. 25030081), and 9.7 microM Y-27632 dihydrochloride (Tocris Bioscience, Bristol, United Kingdom, cat. 1254). The PDCs were cultured in complete DMEM/F12 media without 9.7 microM Y-27632 dihydrochloride for at least two passages prior to the screen. The established cell line HOP-62 was cultured in RPMI 1640 medium, HEPES (Invitrogen, cat. 22400105) with 10% defined fetal bovine serum (HyClone Laboratories Inc., cat. SH30070.03) and 2 mM L-glutamine (Invitrogen, cat. 25030081). The pooled donor HUVEC were cultured in endothelial cell growth medium 2 (PromoCell, Heidelberg, Germany, cat. C-22011) and the hMSC were cultured in mesenchymal stem cell growth medium 2 (PromoCell, cat. C-28009). For all experiments, HUVEC and hMSC were used at passages </=5, while the malignant cell lines were used at passages </=15. […]
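Further: compound exposure lasted 7 days before the readout.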
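Wherever viability, T/C is given: 100% = DMSO vehicle control viability.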

SMILES: CC1OCC2(CCN(c3cnc(Sc4ccnc(N)c4Cl)c(N)n3)CC2)C1N (stereo not given) + C=CC(=O)N1CCN(c2nc(=O)n(-c3c(C)ccnc3C(C)C)c3nc(-c4c(O)cccc4F)c(F)cc23)C(C)C1
- IC50 (second compound 0.1 µM): > 10 µM
- IC50 (second compound 0.316 µM): > 10 µM
- IC50 (second compound 1 µM): > 10 µM
- IC50 (second compound 3.16 µM): > 10 µM
- IC50 (second compound 10 µM): > 10 µM
- viability, T/C (second compound 0.1 µM, first compound 0.0316 µM): 86.7%
- viability, T/C (second compound 0.1 µM, first compound 0.1 µM): 73.4%
- viability, T/C (second compound 0.1 µM, first compound 0.316 µM): 69.9%
- viability, T/C (second compound 0.1 µM, first compound 1 µM): 64.8%
- viability, T/C (second compound 0.1 µM, first compound 3.16 µM): 67.5%
- viability, T/C (second compound 0.1 µM, first compound 10 µM): 77.4%
- viability, T/C (second compound 0.316 µM, first compound 0.0316 µM): 119%
- viability, T/C (second compound 0.316 µM, first compound 0.1 µM): 92.3%
- viability, T/C (second compound 0.316 µM, first compound 0.316 µM): 83.3%
- viability, T/C (second compound 0.316 µM, first compound 1 µM): 73.6%
- viability, T/C (second compound 0.316 µM, first compound 3.16 µM): 80.4%
- viability, T/C (second compound 0.316 µM, first compound 10 µM): 83.5%
- viability, T/C (second compound 1 µM, first compound 0.0316 µM): 118%
- viability, T/C (second compound 1 µM, first compound 0.1 µM): 87.8%
- viability, T/C (second compound 1 µM, first compound 0.316 µM): 79%
- viability, T/C (second compound 1 µM, first compound 1 µM): 64.1%
- viability, T/C (second compound 1 µM, first compound 3.16 µM): 78.7%
- viability, T/C (second compound 1 µM, first compound 10 µM): 78.9%
- viability, T/C (second compound 3.16 µM, first compound 0.0316 µM): 99.7%
- viability, T/C (second compound 3.16 µM, first compound 0.1 µM): 91.8%
- viability, T/C (second compound 3.16 µM, first compound 0.316 µM): 100%
- viability, T/C (second compound 3.16 µM, first compound 1 µM): 87.3%
- viability, T/C (second compound 3.16 µM, first compound 3.16 µM): 70.1%
- viability, T/C (second compound 3.16 µM, first compound 10 µM): 82.3%
- viability, T/C (second compound 10 µM, first compound 0.0316 µM): 92.3%
- viability, T/C (second compound 10 µM, first compound 0.1 µM): 74.8%
- viability, T/C (second compound 10 µM, first compound 0.316 µM): 79.7%
- viability, T/C (second compound 10 µM, first compound 1 µM): 75.6%
- viability, T/C (second compound 10 µM, first compound 3.16 µM): 74.1%
- viability, T/C (second compound 10 µM, first compound 10 µM): 67%
